{
  "source": "patent US12636371B2",
  "about": "“Chemically coupled transporter for low-hydrophobicity bioactive drugs into the central nervous system” (Skybio LLC, priority 2021, dated 2026)",
  "key": {"[1]": {"test_system": "E. coli DH5α", "assay": "Antibiotic activity by disc diffusion assay (MIC)", "type": "cell-based", "details": "disc diffusion, two-fold serial dilutions from 2 mg/ml, LB solid medium, overnight 37° C.", "method": "In order to examine the antibiotic activity of the compounds synthesized in Example 1, an assay was performed using E. coli DH5α (Gram(−)), as a sensitive, indicator strain.\nThe antibacterial activities of test compounds were evaluated using the disc diffusion method (Kavanagh, F. Dilution methods of antibiotic assays in Analytical Microbiology. 1963; Pomares M F, Vincent P A, Farías R N, Salomón R A. Protective action of ppGpp in microcin J25-sensitive strains. J Bacteriol. 2008-190:4328-34). Briefly, filter-paper discs impregnated with 10 μl of two-fold serial dilutions of the test compounds, and were placed onto LB solid medium Petri dishes. Then, aliquots (50 μl) of an E. coli DH5α culture in stationary phase were mixed with 3 ml of top agar (0.7% agar) and overlaid onto the plates. After overnight incubation at 37° C., the plates were examined for different degrees of inhibition. Inhibition degrees produced by the test compound are expressed as Minimum Inhibitory Concentrations (MICs), defined as the lowest concentration of a compound that inhibit visible growth of bacteria. Each test was performed in duplicate vs. the reference compound Doxycycline."}, "[2]": {"test_system": "SH-SY5Y cells", "assay": "MTT cytotoxicity assay in neuroblastoma SH-SY5Y cells", "type": "cell-based", "details": "1, 10 and 20 μM, 24 h", "method": "The impact of Pegasus (D9) on cellular viability was studied in SH-SY5Y neuroblastoma cell lines using the colorimetric Thiazolyl Blue Tetrazolium […] (MTT) metabolic activity assay (Mosmann T. Rapid colorimetric assay for cellular growth and survival: application to proliferation and cytotoxicity assays. J Immunol Methods 1983; 65(1-2): 55-63), which reports viable cell number based on mitochondrial activity.\nSH-SY5Y cells were seeded in 96-well plates at 15,000 cells/well with 100 μl of DMEM supplemented with 10% Fetal Bovine Serum (FBS) and 1% Antibiotics/Antimycotics, and incubated for 24 h at 37° C. and 5% CO2. Afterwards, cells were treated with a 25 μl aliquot of a D9 solution 5 μM, 50 μM or 100 μM (final concentration in well 1 μM, 10 μM and 20 μM, respectively) and incubated for 24 h. To determine cell viability, the MTT assay was used as previously described by Mosmann (1983). All experiments were performed in sextuplicate, and the relative cell viability (%) was expressed as a percentage relative to the untreated control condition."}, "[3]": {"test_system": "IL-1β release in Bv2 cells", "assay": "IL-1β release in LPS-stimulated microglial cells (ELISA)", "type": "cell-based, murine", "method": "To evaluate the effect of Pegasus on LPS-activated microglia, Bv2 cells were pretreated with Pegasus (D9) (200 μM). After 4 h of treatment, cells were stimulated with LPS (10 μg/mL, final concentration) during 24 h. Doxycycline (Doxy) (200 μM) and Dexamethasone (Dexa) (200 μM) were used as a positive control of anti-inflammatory effects. IL-1β cytokine concentration was measured by ELISA assays (Mouse IL-1 beta ELISA Kit, Cat #BMS6002, Invitrogen), according to instructions provided by the manufacturer."}, "[4]": {"test_system": "HEK293/Cytochrome C-tGFP cell line", "assay": "Apoptosis assay, Cytochrome C-tGFP localization by confocal microscopy", "type": "cell-based", "details": "200 μM, 24 h", "from_the_text": "Identification of genes linked to familiar forms of PD have uncovered many molecular pathways involved in neurodegeneration. One of such genes is PTEN-induced kinase 1 (PINK1), a mitochondrial serine/threonine-protein kinase that protects cells from stress-induced mitochondrial dysfunction. […] In fact, PINK1 is the second most frequent causative gene in early-onset PD, where mutations in this gene cause an autosomal recessive form of the disease. Frequent missense or truncating mutations of PINK1 are implicated in the pathogenesis of PARK6 (familial type 6 of PD). […] Therefore, the release of Cytochrome C from damaged mitochondria is considered a central event in apoptotic signaling. To characterize the ability of Pegasus (D9) to induce mitochondrial damage and apoptosis, as assayed by the release of Cytochrome C from mitochondria, a transgenic Cytochrome C-tGFP HEK293 cell line was used (INNOPROT #P30801) (Goldstein J C, Muñoz-Pinedo C, Ricci J E, et al. Cytochrome C is released in a single step during apoptosis. Cell Death Differ 2005; 12(5): 453-62).\nThe effect of Pegasus on the localization and distribution of mitochondrial Cytochrome C-tGFP was visualized by confocal microscopy after incubation with 200 μM of D9 for 24 hs in the HEK293/Cytochrome C-tGFP cell line (INNOPROT #P30801). Images were acquired in a ZEISS LSM800 Confocal Microscope."}, "[5]": {"test_system": "SH-SY5Y cells", "assay": "Lysosome localization and number, LysoTracker Deep Red confocal microscopy", "type": "cell-based", "details": "200 μM, 24 hs", "from_the_text": "Lysosomes are the final destination of the autophagic pathway. LysoTracker™ fluorescent probes, dyes that preferentially accumulate in vesicles with acidic pH, are widely used for tracing lysosomes in living and fixed cells in order to study organelle localization, their resident proteins, assess organelle functionality, quantify lysosome numbers and abnormalities in vesicular pH (Eskelinen E L, Schmidt C K, Neu S, et al. Disturbed cholesterol traffic but normal proteolytic function in LAMP-1/LAMP-2 double-deficient fibroblasts. Mol Biol Cell 2004; 15(7): 3132-45), and to examine the efficiency of autophagosome/lysosome fusion in live cells (González-Polo R A, Boya P, Pauleau A L, et al. The apoptosis/autophagy paradox: autophagic vacuolization before apoptotic death. J Cell Sci 2005; 118 (Pt 14): 3091-102.).\nThe effect of Pegasus on lysosomal activity in SH-SY5Y cells was estimated by visualizing the localization and number of lysosomes, marked by LysoTracker™ Deep Red (ThermoFisher #L12492), after treatment with 200 μM of Pegasus for 24 hs. After incubation, cells were fixed in PFA 4% prepared for confocal microscopy. Images were acquired in a ZEISS LSM800 confocal microscope."}, "[6]": {"molecular_target": "D1 dopamine receptor (Homo sapiens, UniProt P21728)", "sequence (P21728 whole entry)": "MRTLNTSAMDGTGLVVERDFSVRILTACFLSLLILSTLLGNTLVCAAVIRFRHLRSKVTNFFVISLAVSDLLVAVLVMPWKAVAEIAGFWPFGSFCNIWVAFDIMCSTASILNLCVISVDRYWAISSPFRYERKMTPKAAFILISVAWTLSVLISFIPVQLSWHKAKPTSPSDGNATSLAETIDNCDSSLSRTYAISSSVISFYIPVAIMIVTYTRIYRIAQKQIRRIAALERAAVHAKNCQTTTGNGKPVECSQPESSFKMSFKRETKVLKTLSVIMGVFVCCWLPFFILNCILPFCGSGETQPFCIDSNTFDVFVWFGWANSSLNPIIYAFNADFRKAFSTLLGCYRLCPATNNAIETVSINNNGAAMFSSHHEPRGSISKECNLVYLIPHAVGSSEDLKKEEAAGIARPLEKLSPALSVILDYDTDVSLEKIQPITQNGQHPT", "assay": "D1 receptor agonist assay, cAMP Nomad biosensor, HEK_cAMPNmd_FP650_D1 cells", "experimental": "HEK_cAMPNmd_FP650_D1 and U2OS_cAMPNmd_FP650_D2 cells were seeded at a density of 30.000 and 20.000 cells/well, respectively, in 96-well plates. Cells were maintained in DMEM or DMEM-F12 medium supplemented with 10% FBS during 24 h at 37° C. in a humidified 5% CO2 atmosphere.\nTo detect Nomad biosensor activation, the assay medium was removed and replaced by 100 ml of DPBS with calcium and magnesium. […] In U2OS_cAMPNmd_FP650_D2 cells, images were acquired using the CellInsight CX7 HCS Platform, and the number of fluorescent vesicles per cell was quantified with the HCS Studio Cell Analysis Software.\nThe effect of the compounds in the regulation of D1 or D2 receptors' activation was analyzed measuring the CAMP signaling using the Nomad biosensor-based assay."}},
  "data": [
    {"molecule": "C[C@H]1c2ccc(NC(=O)CCC(=O)NCCc3ccc(O)c(O)c3)c(O)c2C(=O)C2=C(O)[C@]3(O)C(=O)C(C(N)=O)=C(O)CC3[C@@H](O)C21", "note": "(stereo partly shown) [Pegasus]", "values": [
      {"measurement": "MIC", "setting": "[1]", "result": "no antibiotic activity at the concentrations tested"},
      {"measurement": "Cytotoxicity (relative cell viability, MTT)", "setting": "[2]", "result": "no cytotoxic effect"},
      {"measurement": "IL-1β production after LPS stimulation", "setting": "[3]; 200 μM pretreatment 4 h, then LPS 10 μg/mL 24 h", "result": "reduced production of IL-1β"},
      {"measurement": "IL-1β release, compound alone", "setting": "[3]; compound alone, no LPS", "result": "did not lead to a significantly increase of IL-1β release"},
      {"measurement": "Localization and distribution of Cytochrome C-tGFP (marker of apoptosis)", "setting": "[4]", "result": "no differences in localization and distribution of Cytochrome C-tGFP"},
      {"measurement": "Localization and number of lysosomes (lysosome biogenesis)", "setting": "[5]", "result": "does not interfere with the biogenesis of lysosomes"},
      {"measurement": "EC50", "setting": "[6]", "result": 2800, "unit": "nM"}
    ]}
  ]
}
